Reference: patent publication US12448388B2, “PRMT5 inhibitors and uses thereof” (Gilead Sciences, Inc., priority 2023, dated 2025)
Like-named read-outs stand apart in the source and are kept apart here.

Legend:
[1] = test system: HCT116 MTAP-deleted cell lines; assay: Cell viability assay (CellTiter-Glo, 7 days), HCT116 MTAP-deleted; format: cell-based; conditions: Homo sapiens, HCT-116, HCT116 MTAP-deleted, class symbols, read-out: CC50
Method in brief: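 Read-out was CellTiter-Glo luminescence after a 7-day incubation (37 °C, 5% CO2) of HCT116 cells, MTAP-deleted or WT, on dose-response compound plates. CC50 values come from each line; where marked *, selectivity is overstated because poor solubility impaired the WT CC50 measurement.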

[2] = test system: Symmetric Di-methyl Arginine (SDMA) signal (PRMT5 inhibition) in HCT116 MTAP-deleted cells; assay: Symmetric di-methyl arginine image-based high content screen assay (SDMA assay), HCT116 MTAP-deleted; format: cell-based; conditions: for EC50: Homo sapiens, HCT-116, HCT116 MTAP-deleted, class symbols
Protocol: Symmetric di-methyl arginine image-based high content screen assay (SDMA assay) was performed in HCT116 WT and HCT116 MTAP-deleted cell lines to measure Symmetric Di-methyl Arginine (SDMA) signal reduction after selective PRMT5 inhibition in the MTAP-deleted cells. Control compounds were analyzed in parallel each time for quality control.
Briefly, the same compound plates were generated as mentioned in the previous section of Cell viability assay on Day −1. On Day 0, 800 HCT WT or HCT116 MTAP-deleted cell were seeded in compound-containing 384 well plates (50 μl per well) in RPMI 1640 media supplemented with 10% heat inactivated fetal bovine serum, Glutamax and penicillin streptomycin using EL460 liquid dispenser 5 μl cassette (BioTek, part no. 7170011). After equilibrating the plate at room temperature, the cells were incubated for 3 days inside the sealed incubator set at 37° C. with 90% humidity and 5% C02.
On Day 3, the cells were fixed by adding 45 μl of 8% neutralized formalin solution to each well using EL460 liquid dispenser 5 μl cassette and the cells were incubated for 30 minutes at room temperature. The formalin solution was washed off with […] phosphate buffered saline (dPBS), the 0.1% Triton X-100 solution in dPBS was used to permeabilize the cells for 15 minutes at room temperature. The triton solution was aspirated, 50 μl of Odyssey Blocking buffer +0.05% Tween20 was added and the plate was incubated at room temperature for 30 minutes.
The blocking solution was removed, a 20 μl of SDMA antibody (Cell Signaling Technology, Cat no. 13222) diluted 1:500 in Odyssey Blocking buffer +0.05% Tween20 was added and the plate was incubated at 4° C. overnight. Next day, the primary SDME antibody solution was washed from each well three times with 0.05% Tween20 in dPBS (PBST).
A 30 μl of the secondary antibody, a Goat anti-Rabbit Alexa Fluor Plus 488 (Invitrogen, Cat no. PIA32731) was diluted 1:500 in Odyssey Blocking buffer +0.05% Tween20 and the plate was incubated for 1.5 hours in dark at room temperature. The secondary antibody solution was removed, 30 μl of 5 mg/ml DAPI solution diluted 1:2000 in dPBS was added and the plate was incubated for 30 minutes in dark at room temperature. The DAPI solution was aspirated and the wells were washed six times with dPBS.
The SDMA signal and DAPI signal per cell were counted using a Cellomics CX7 LZR instrument reading under 488 and 405 nm laser, respectively. The SDMA signal was quantified by mean average intensity per cell from Alexa Fluor Plus 488 after the cell was defined with DAPI. The EC50 values for each compound after 3 days of treatment were calculated using 4 parameter non-linear logistical curve fit.
For the SDMA assay i.e. EC50 shown in Table 3A: A: EC50≤1 nM, B: 1 nM<EC50≤5 nM, C: EC50>5 nM.

[3] = HCT116 WT versus HCT116 MTAP-deleted

SMILES: Nc1nc2cc(F)c(C(=O)N3CCO[C@@H]4Cc5cc(Br)ccc5[C@@H]43)cc2n2cncc12 (racemic) [Ff-28, Racemic(4-amino-7-fluoroimidazo[1,5-a]quinoxalin-8-yl)((4aS,9aR)-7-bromo-2,3,9,9a-tetrahydroindeno[2,1-b][1,4]oxazin-4(4aH)-yl)methanone]
- CC50 ([1]; cell viability): < 100 nM
- EC50 selectivity [2, 3]: 256
- EC50 [2]: 1 to 5 nM

SMILES: COc1ccc2c(c1)CO[C@H]1CCCN(C(=O)c3cc4c(cc3F)nc(N)c3cncn34)[C@@H]21 (racemic) [Ff-44, Rac-(4-amino-7-fluoroimidazo[1,5-a]quinoxalin-8-yl)((cis)-8-methoxy-2,3,4,4a,6,10b-hexahydro-1H-isochromeno[4,3-b]pyridin-1-yl)methanone]
- CC50 ([1]; cell viability): < 100 nM
- EC50 selectivity [2, 3]: 73
- EC50 [2]: 1 to 5 nM

SMILES: Nc1nc2cc(F)c(C(=O)N3CCCC4OCc5nc(C(F)(F)F)ccc5[C@@H]43)cc2n2cncc12 (mixture of isomers) [Ff-319, Rac-(4-amino-7-fluoroimidazo[1,5-a]quinoxalin-8-yl)((4aS,10bS)-8-(trifluoromethyl)-2,3,4,4a,6,10b-hexahydro-1H-pyrano[3,2-b:5,4-b′]dipyridin-1-yl)methanone]
- CC50 ([1]; cell viability): < 100 nM
- EC50 selectivity [2, 3]: 42
- EC50 [2]: 1 to 5 nM

SMILES: C[C@@H]1CC2Cc3cc(C(F)(F)F)ccc3[C@@H]2N(C(=O)c2cc3c(cc2F)nc(N)c2cncn23)C1 (mixture of isomers) [Ff-320, Rac-(4-amino-7-fluoroimidazo[1,5-a]quinoxalin-8-yl)((3R,4aR,9bR)-3-methyl-7-(trifluoromethyl)-2,3,4,4a,5,9b-hexahydro-1H-indeno[1,2-b]pyridin-1-yl)methanone]
- CC50 ([1]; cell viability): < 100 nM
- EC50 selectivity [2, 3]: 26
- EC50 [2]: 1 to 5 nM

SMILES: C[C@@H]1C[C@@H]2Cc3nc(C(F)(F)F)ccc3[C@@H]2N(C(=O)c2cc3c(cc2F)nc(N)c2cncn23)C1 (racemic) [Ff-321, Rac-(4-amino-7-fluoroimidazo[1,5-a]quinoxalin-8-yl)((4bR,7R,8aR)-7-methyl-2-(trifluoromethyl)-4b,6,7,8,8a,9-hexahydro-5H-cyclopenta[1,2-b:3,4-b′]dipyridin-5-yl)methanone]
- CC50 ([1]; cell viability): < 100 nM
- EC50 selectivity [2, 3]: 67
- EC50 [2]: 1 to 5 nM

SMILES: Cc1ncc2c(N)nc3cnc(C(=O)N4C[C@H](F)C[C@@H]5Oc6cc(C(F)(F)F)ccc6[C@@H]54)cc3n12 (racemic) [Ff-682, Rac-(4-amino-1-methylimidazo[1,5-a]pyrido[3,4-e]pyrazin-8-yl)((3R,4aS,9bS)-3-fluoro-7-(trifluoromethyl)-3,4,4a,9b-tetrahydrobenzofuro[3,2-b]pyridin-1(2H)-yl)methanone]
- CC50 ([1]; cell viability assay): < 100 nM
- EC50 selectivity ([2]; HCT116 WT vs HCT116 MTAP-deleted): 128
- EC50 [2]: 1 to 5 nM

SMILES: Cc1ncn2c1c(N)nc1cnc(C(=O)N3CCC[C@@H]4Oc5c(ccc(OC(F)(F)F)c5F)[C@@H]43)cc12 [Fg-62, (4-amino-3-methylimidazo[1,5-a]pyrido[3,4-e]pyrazin-8-yl)((4aS,9bS)-6-fluoro-7-(trifluoromethoxy)-3,4,4a,9b-tetrahydrobenzofuro[3,2-b]pyridin-1(2H)-yl)methanone]
- CC50 ([1]; cell viability assay): < 100 nM

SMILES: Cc1ncn2c1c(N)nc1cnc(C(=O)N3C[C@H](C)C[C@@H]4Oc5c(ccc(C(F)(F)F)c5F)[C@@H]43)cc12 [Fg-63, (4-amino-3-methylimidazo[1,5-a]pyrido[3,4-e]pyrazin-8-yl)((3R,4aS,9bS)-6-fluoro-3-methyl-7-(trifluoromethyl)-3,4,4a,9b-tetrahydrobenzofuro[3,2-b]pyridin-1(2H)-yl)methanone]
- CC50 ([1]; cell viability assay): < 100 nM

SMILES: Cc1ncn2c1c(N)nc1cnc(C(=O)N3CC[C@H]4C[C@@H]3c3ccc(C(F)(F)F)cc3O4)cc12 [Fg-64, (4-amino-3-methylimidazo[1,5-a]pyrido[3,4-e]pyrazin-8-yl)((2S,6R)-9-(trifluoromethyl)-3,4-dihydro-2H-2,6-methanobenzo[b][1,5]oxazocin-5(6H)-yl)methanone]
- CC50 ([1]; cell viability assay): < 100 nM
